Results from patent US7557129B2, “Cyanopyridine derivatives useful in the treatment of cancer and other disorders” (Bayer Healthcare LLC, priority 2003, dated 2009).

SMILES	melting point
CC(C)(C)c1ccnc(NC(=O)Nc2ccc(Oc3ccnc(C#N)c3)cc2)c1 [Entry 143, N-[4-(tert-butyl)(2-pyridyl)]{[4-(2-cyano(4-pyridyloxy))phenyl]amino}carboxamide]	216 to 217 °C
N#Cc1cc(Oc2ccc(NC(=O)Nc3ccc4c(c3)C(F)(F)OC(F)(F)O4)c(F)c2)ccn1 [Entry 124, {[4-(2-cyano(4-pyridyloxy))-2-fluorophenyl]amino}-N-(2,2,4,4-tetrafluorobenzo[3,4-e]1,3-dioxan-6-yl)carboxamide]	169 to 171 °C
CS(=O)(=O)c1cc(Oc2ccnc(C#N)c2)ccc1NC(=O)Nc1ccc2c(c1)C(F)(F)OC(F)(F)O2 [Entry 141, {[4-(2-cyano(4-pyridyl)oxy)-2-(methylsulfonyl)phenyl]amino}-N-(2,2,4,4-tetrafluorobenzo[3,4-e]1,3-dioxan-6-yl)carboxamide]	229 to 230 °C
N#Cc1cc(Oc2ccc(NC(=O)Nc3ccc4c(c3)C(F)(F)OC(F)(F)O4)c(F)c2F)ccn1 [Entry 129, {[4-(2-cyano(4-pyridyloxy))-2,3-difluorophenyl]amino}-N-(2,2,4,4-tetrafluorobenzo[3,4-e]1,3-dioxan-6-yl)carboxamide]	181 to 182 °C
N#Cc1cc(Oc2ccc(NC(=O)Nc3ccc4c(c3)OC(F)(F)O4)cc2F)ccn1 [Entry 113, N-(2,2-difluorobenzo[d]1,3-dioxolan-5-yl){[4-(2-cyano(4-pyridyloxy))-3-fluorophenyl]amino}carboxamide]	193.5 to 194.5 °C
N#Cc1cc(Oc2ccc(NC(=O)Nc3cc4ccccc4cn3)c(F)c2)ccn1 [Entry 160, {[4-(2-cyano(4-pyridyloxy))-2-fluorophenyl]amino}-N-(3-isoquinolyl)carboxamide]	218 to 220 °C
N#Cc1cc(Oc2ccc(NC(=O)Nc3cc4ccccc4cn3)cc2)ccn1 [Entry 159, {[4-(2-cyano(4-pyridyloxy))phenyl]amino}-N-(3-isoquinolyl)carboxamide]	208 to 212 °C
N#Cc1cc(Oc2ccc(NC(=O)Nc3cc(C(F)(F)F)ccn3)cc2)ccn1 [Entry 152, {[4-(2-cyano(4-pyridyloxy))phenyl]amino}-N-[4-(trifluoromethyl)(2-pyridyl)]carboxamide]	202 °C
N#Cc1cc(Oc2ccc(NC(=O)Nc3cc(C(F)(F)F)ccn3)c(C(F)(F)F)c2)ccn1 [Entry 150, {[4-(2-cyano(4-pyridyloxy))-2-(trifluoromethyl)phenyl]amino}-N-[4-(trifluoromethyl)(2-pyridyl)]carboxamide]	209 to 210.5 °C
N#Cc1cc(Oc2ccc(NC(=O)Nc3ccc4c(c3)C(F)(F)OC(F)(F)O4)c(C(F)(F)F)c2)ccn1 [Entry 128, {[4-(2-cyano(4-pyridyloxy))-2-(trifluoromethyl)phenyl]amino}-N-(2,2,4,4-tetrafluorobenzo[3,4-e]1,3-dioxan-6-yl)carboxamide]	220 to 221 °C
N#Cc1cc(Oc2ccc(NC(=O)Nc3ccnc(C(F)(F)F)c3)c(F)c2)ccn1 [Entry 142, {[4-(2-cyano(4-pyridyloxy))-2-fluorophenyl]amino}-N-[2-(trifluoromethyl)(4-pyridyl)]carboxamide]	192 to 193 °C
N#Cc1cc(Oc2ccc(NC(=O)Nc3ccc4c(c3)OC(F)(F)O4)cc2)ccn1 [Entry 109, N-(2,2-difluorobenzo[d]1,3-dioxolan-5-yl){[4-(2-cyano(4-pyridyloxy))phenyl]amino}carboxamide]	199 to 200 °C
Cn1ncc2cc(NC(=O)Nc3ccc(Oc4ccnc(C#N)c4)cc3C(F)(F)F)ccc21 [Entry 165, {[4-(2-cyano(4-pyridyloxy))-2-(trifluoromethyl)phenyl]amino}-N-(1-methyl(1H-indazol-5-yl))carboxamide]	239 to 240 °C
N#Cc1cc(Oc2ccc(NC(=O)Nc3ccc4c(c3)C(F)(F)OC(F)(F)O4)cc2F)ccn1 [Entry 127, {[4-(2-cyano(4-pyridyloxy))-3-fluorophenyl]amino}-N-(2,2,4,4-tetrafluorobenzo[3,4-e]1,3-dioxan-6-yl)carboxamide]	196 to 199.5 °C
Cc1ccc2cc(NC(=O)Nc3ccc(Oc4ccnc(C#N)c4)cc3)ccc2n1 [Entry 154, {[4-(2-cyano(4-pyridyloxy))phenyl]amino}-N-(2-methyl(6-quinolyl))carboxamide]	245.5 °C
CCc1ccnc(NC(=O)Nc2ccc(Oc3ccnc(C#N)c3)cc2)c1 [Entry 153, {[4-(2-cyano(4-pyridyloxy))phenyl]amino}-N-(4-ethyl(2-pyridyl))carboxamide]	209 to 210 °C
CSc1cc(Oc2ccnc(C#N)c2)ccc1NC(=O)Nc1ccc2c(c1)C(F)(F)OC(F)(F)O2 [Entry 140, {[4-(2-cyano(4-pyridyl)oxy)-2-methylthiophenyl]amino}-N-(2,2,4,4-tetrafluorobenzo[3,4-e]1,3-dioxan-6-yl)carboxamide]	183 to 185 °C
